{"source": "patent US8501789B2", "about": "“Use of salicylaldehyde isonicotinoyl hydrazone (SIH) for protection against retinal disease” (The Trustees of the University of Pennsylvania, priority 2007, dated 2013)", "key": {"[1]": {"system": "ARPE-19 cells that had accumulated A2E", "experiment": "A2E/blue light-induced cell death, MTT assay", "format": "cell-based", "procedure": "Graphs show ARPE-19 cell viability measured by the MTT assay. Increased absorbance indicates increased viability. (A) Cells were incubated with the indicated concentrations of SIH-MEM for 4 h, irradiated with blue light for 20 min in DPBS-SIH, and incubated in MEM-SIH for 24 hr before performing MTT assay. (B) Cells were pre-treated with MEM-SIH for 4 h, irradiated with blue light for 20 min in DPBS and incubated in MEM for 24 h. (C) Cells were irradiated by blue light for 20 min in DPBS and SIH-MEM was applied immediately after irradiation and maintained for 24 hrs. (D) Cells were irradiated with blue light for 20 min in DPBS and SIH-MEM was applied 1 h after irradiation and maintained for 23 h before performing MTT assay. For all graphs, relative to no SIH, * p<0.05, ** p<0.01, *** p<0.001;\nFor blue light irradiation experiments ARPE-19 cells devoid of endogenous lipofuscin were grown in complete medium (DMEM with 10% fetal calf serum and supplements) as previously described. At confluence the cells were allowed to accumulate A2E from a 10 μM concentration delivered in the culture medium over a 2 week period.\nARPE-19 cells that had accumulated A2E were treated with SIH in MEM for 4 hrs unless otherwise indicated. The SIH/MEM was subsequently exchanged for DPBS, the cells were irradiated at 430 nm for 20 min and then returned to complete medium and incubated for 24 hrs. Variations on this paradigm included experiments in which exposure to SIH/MEM was continued during illumination at 430 nm and for 24 hr thereafter; and experiments in which cells were not pre-incubated with SIH but instead were treated with SIH/MEM beginning either immediately after irradiation and continuing for 24 hrs or beginning 1 hr after irradiation and continuing for 23 hrs. In all experiments controls included A2E-laden irradiated cells that were not treated with SIH, cells that received no treatment (A2E-free, non-irradiated, incubation with MEM in the absence of SIH) and cells treated only with SIH.\nIn blue light irradiation experiments cell death was assayed by the 3-(4,5-dimethylthiazol-2-yl)-2,5-diphenyltetrazolium bromide assay, a measure of the ability of healthy cells to cleave the yellow tetrazolium salt MTT to purple formazan crystals. Briefly, following the post-illumination incubation described above, 20 uL of MTT labeling reagent (Roche Diagnostics Corp, Indianapolis, Ind.) was added to 0.2 mL of culture medium in each well and after a 4 hr incubation, the labeling reagent was replaced with 200 uL of solubilization solution for an overnight incubation. After centrifugation at 13,000 rpm for 2 min, supernatants were measured spectrophotometrically. A decrease in the absorbance (570 nm) of reduced MTT was indicative of diminished cellular viability."}, "[2]": {"experiment": "UV/VIS spectra of SIH, H2O2 and their mixture (chemical interaction)", "format": "physicochemical"}, "ARPE-19 cells [3]": {"system": "ARPE-19 cells", "format": "cell-based", "conditions": "for 5 mM H2O2 cytotoxicity: LDH release and Live/Dead", "procedure": "Red indicates dead cells as detected by ethidium bromide homodimer fluorescence. Green indicates live cells as detected by calcein fluorescence;\n(§1) Human adult RPE cells (ARPE-19 cell line from ATCC) were cultured until confluent in 24-well Falcon plates in 1:1 DMEM High Glucose with L-Glutamine and Ham's F12 media (Invitrogen, Carlsbad, Calif.) supplemented with 10% FBS (Hyclone, Logan, Utah). For labile iron detection ARPE cells were stably transfected with a pcDNA3.1 plasmid with an IRE-GFP insert (gift of Drs. Sangwon Kim and Sol Snyder, Johns Hopkins) as a reporter for intracellular iron levels. These cells were named iron-reporting ARPE (iRPE) cells. Efficacy of labile iron chelation was tested by adding different concentrations of SIH to the iron-free MEM medium on iRPE cells and assessing decrease in GFP fluorescence as a measure of reduction in intracellular iron levels at the 24 h time point. Epifluorescence microscopy was performed with a Nikon TE-300 microscope (Nikon Inc., Japan) and SpotRT Slider camera (Diagnostic Instruments, Inc., Sterling Heights, Mich.) with ImagePro Plus software, version 4.1 (Media Cybernetics, Silver Spring, Md.).\n(§2) To evaluate SIH's cytoprotective properties, SIH at different concentrations was applied to confluent ARPE-19 cells four hrs prior to the addition of H2O2, staurosporine or anti-Fas antibody. Hydrogen peroxide (30% H2O2 from Sigma, St. Louis, Mo.) at final concentration ranging from 1 to 5 mM, Staurosporine (1 mM solution from Sigma) at 100-500 nM final concentration or aFas antibody (Upstate-Millipore, Billerica, Mass.) at 1 μg/mL final concentration were mixed with the indicated concentrations of SIH immediately before applying to ARPE-19 cells. All reagents were dissolved in Minimal Essential Medium (MEM, Invitrogen) as indicated and were applied rapidly and uniformly following two washing steps in HBSS.\nCell death was assayed after 24 hrs using the LDH Release Assay Kit (Roche, Basel, Switzerland). Cytotoxicity was calculated using the ratio between maximum LDH release in 2% Triton X100-treated cells and minimum LDH release in cells incubated in MEM. Visualization of cell death was performed using the LIVE/DEAD Viability/Cytotoxicity kit (Invitrogen)."}, "[4]": {"system": "intracellular labile iron levels in ARPE-19 cells stably transfected with the IRE-GFP reporter (iRPE)", "experiment": "Labile iron chelation in IRE-GFP iron-reporting ARPE (iRPE) cells, GFP fluorescence", "format": "cell-based, Human", "conditions": "for GFP fluorescence (labile iron level): iRPE cells, 24 h, iron-free MEM", "procedure": "Fluorescence intensity indicates relative intracellular iron levels. […] Images are representative of results from 3 independent experiments and taken using identical exposure parameters;\nas §1, with “Efficacy of labile iron chelation was tested by adding different concentrations of SIH to the iron-free MEM medium on iRPE cells and assessing decrease in GFP fluorescence as a measure of reduction in intracellular iron levels at the 24 h time point.” left out\nTo quantify the labile iron pool, an iron-reporting RPE cell line (iRPE) was first generated, wherein fluorescence green fluorescent protein reflects labile iron levels. This was accomplished by making a stable cell line with the plasmid IRE-GFP (gift of Sangwon Kim and Sol Snyder). The iron responsive element (IRE) sequence in the 5′ untranslated region of the mRNA is bound by iron regulatory proteins only when labile iron levels are low, leading to inhibition of GFP translation. The fluorescence of iRPE cells treated with different concentrations of SIH for 24 h was determined (FIG. 2)."}, "ARPE-19 cells [5]": {"system": "ARPE-19 cells", "experiment": "Staurosporine-induced cell death, LDH release and LIVE/DEAD assay", "format": "cell-based, Human", "procedure": "as §2, with “(A) Graph of LDH release following exposure of ARPE-19 cells to varying concentrations of staurosporine. […] (B) Graph of LDH release following exposure of ARPE-19 cells to 200 nM staurosporine plus different concentrations of SIH. […] (C) Fluorescence photomicrograph of cells labeled with the LIVE/DEAD assay following treatment with staurosporine and/or SIH as indicated; To” for “To”, “HBSS. Cell death was assayed after 24 hrs using the LDH Release Assay Kit (Roche, Basel, Switzerland). Cytotoxicity was calculated using the ratio between maximum LDH release in 2% Triton X100-treated cells and minimum LDH release in cells incubated in MEM. Visualization of cell death was performed using the LIVE/DEAD Viability/Cytotoxicity kit (Invitrogen).” for “HBSS.”"}, "ARPE-19 cells [6]": {"system": "ARPE-19 cells", "experiment": "Intracellular ROS generation, dihydrorhodamine 123 fluorescence", "format": "cell-based, Human", "description": "Level of ROS generation is detected by dihydrorhodamine 123 (green fluorescence) in cells treated with staurosporine and/or 3 μM SIH as indicated. Mitotracker dye (red fluorescence) indicates location of mitochondria; and\nIntracellular ROS generation was measured in cultured cells by using the fluorescent probe dihydrorhodamine 123 (DHR123). Mitochondria were localized with Mitotracker Red 580 (Molecular Probes, Eugene, Oreg.). After 30 min of staurosporine exposure with our without SIH, cells were incubated with staurosporine +/−SIH in the presence of 10 μM DHR123 and 2 μM Mitotracker Red 580 at 37° C. for 15 min. DHR fluoresces and localizes to mitochondria when oxidized by ROS to the positively charged rhodamine 123^33. Mitotracker dye passively diffuses across the plasma membrane and specifically accumulates in active mitochondria.\nTo test whether iron contributes to this ROS production, and whether a decrease in mitochondrial ROS might be a mechanism of SIH protection, ROS were detected with rhodamine 123 after 30 min of staurosporine treatment. In the presence of ROS, non-fluorescent dihydrorhodamine 123 is converted into highly fluorescent rhodamine 123."}, "ARPE-19 cells [7]": {"system": "ARPE-19 cells", "experiment": "Anti-Fas antibody (aFas)-induced cell death, LDH release assay", "format": "cell-based, Human", "conditions": "SIH beginning 4 hrs before treatment with aFas", "description": "All reagents were dissolved in Minimal Essential Medium (MEM, Invitrogen) as indicated and were applied rapidly and uniformly following two washing steps in HBSS. Cell death was assayed after 24 hrs using the LDH Release Assay Kit (Roche, Basel, Switzerland). Cytotoxicity was calculated using the ratio between maximum LDH release in 2% Triton X100-treated cells and minimum LDH release in cells incubated in MEM."}, "ARPE-19 cells [8]": {"system": "ARPE-19 cells", "format": "cell-based, Human"}}, "note": "Where two headings read alike, the source gives them in different places."}
{"smiles": "O=C(NN=Cc1ccccc1O)c1ccncc1", "note": "[SIH, salicylaldehyde isonicotinoyl hydrazone]", "values": [{"measurement": "protection of cell viability (MTT)", "setting": "[1]; SIH applied 1 hr after light exposure", "result": "partial protection"}, {"measurement": "cell viability (MTT)", "setting": "[1]; SIH before, during, or as late as 1 hr after blue light exposure", "result": "cell viability was increased"}, {"measurement": "cell viability (MTT)", "setting": "[1]; SIH present before, during, and after light exposure", "result": "greatest increase in cell viability"}, {"measurement": "SIH-mediated toxicity", "setting": "[1]; cells incubated with SIH but not exposed to A2E or blue light", "result": "No SIH-mediated toxicity"}, {"measurement": "changes in spectroscopic properties of SIH-H2O2 mixture compared with SIH and H2O2 alone", "setting": "[2]", "result": "did not detect any changes"}, {"measurement": "5 mM H2O2 cytotoxicity", "setting": "ARPE-19 cells [3]; 5 μM SIH before H2O2 and mixed with H2O2, 24 h", "result": "completely abolished"}, {"measurement": "5 mM H2O2 cytotoxicity", "setting": "ARPE-19 cells [3]; 10 μM SIH before H2O2 and mixed with H2O2, 24 h", "result": "completely abolished"}, {"measurement": "cytoprotection against H2O2", "setting": "ARPE-19 cells [3]; SIH applied 1 h after H2O2 (data not shown)", "result": "no protection"}, {"measurement": "cytoprotection against H2O2", "setting": "ARPE-19 cells [3]; SIH applied together with H2O2 but without SIH pre-treatment", "result": "Diminished cytoprotection"}, {"measurement": "cytoprotection against H2O2", "setting": "ARPE-19 cells [3]; SIH pre-incubated with ferric ammonium citrate in a 2:1 molar ratio (data not shown)", "result": "no protection"}, {"measurement": "GFP fluorescence (labile iron level)", "setting": "[4]; 3 μM SIH", "result": "decreased significantly"}, {"measurement": "GFP fluorescence (labile iron level)", "setting": "[4]; 10 μM SIH", "result": "decreased significantly"}, {"measurement": "GFP fluorescence (labile iron level)", "setting": "[4]; 50 μM SIH", "result": "close to the level of untreated control"}, {"measurement": "GFP fluorescence (labile iron level)", "setting": "[4]; 100 μM SIH", "result": "close to the level of untreated control"}, {"measurement": "GFP fluorescence (labile iron level)", "setting": "[4]; 1 mM SIH", "result": "decreased slightly"}, {"measurement": "iRPE fluorescence levels", "setting": "[4]; iron-containing medium DMEM-F12 with 10% fetal calf serum", "result": "decreased the fluorescence"}, {"measurement": "cell viability (LDH release)", "setting": "ARPE-19 cells [5]; SIH 4 h before and through 24 h of 200 nM staurosporine", "result": "increased in an SIH concentration-dependent manner"}, {"measurement": "cell viability (LDH release)", "setting": "ARPE-19 cells [5]; SIH 4 h before and through 24 h of 500 nm staurosporine (not shown)", "result": "increased in an SIH concentration-dependent manner"}, {"measurement": "red (dead) cells, live/dead fluorescent imaging", "setting": "ARPE-19 cells [5]; staurosporine plus 5 μM SIH", "result": "very few or none"}, {"measurement": "red (dead) cells, live/dead fluorescent imaging", "setting": "ARPE-19 cells [5]; staurosporine plus 10 μM SIH", "result": "very few or none"}, {"measurement": "SIH concentration of greatest cytoprotective effect", "setting": "ARPE-19 cells [5]; staurosporine-induced cell death", "result": 10, "unit": "µM"}, {"measurement": "staurosporine-induced rhodamine 123 fluorescence (ROS)", "setting": "ARPE-19 cells [6]; 3 μM SIH", "result": "diminished"}, {"measurement": "cell death caused by Fas activation (LDH release)", "setting": "ARPE-19 cells [7]", "result": "reduced cell death"}, {"measurement": "carbonyl levels in total protein extracts", "setting": "ARPE-19 cells [8]; H2O2-treated cells, 5 μM SIH, 24 h", "result": "did not affect"}, {"measurement": "carbonyl levels in mitochondria-enriched fractions", "setting": "ARPE-19 cells [8]; cells treated for 24 h with H202, 5 μM SIH", "result": "more pronounced decrease"}, {"measurement": "carbonyl levels in mitochondria-enriched fractions", "setting": "ARPE-19 cells [8]; cells treated for 24 h with staurosporine, 5 μM SIH", "result": "more pronounced decrease"}, {"measurement": "carbonyls in total protein extracts", "setting": "ARPE-19 cells [8]; staurosporine-treated cells, 5 μM SIH, 24 h", "result": "small decrease"}]}
{"smiles": "OO", "note": "[H2O2, hydrogen peroxide, reference compound]", "values": [{"measurement": "cell death", "setting": "ARPE-19 cells [3]; 5 mM H2O2, 24 h, LDH release and Live/Dead assay", "result": 100, "unit": "%"}]}
{"smiles": "CN[C@@H]1C[C@H]2O[C@@](C)([C@@H]1OC)n1c3ccccc3c3c4c(c5c6ccccc6n2c5c31)C(=O)NC4", "note": "[staurosporine, reference compound]", "values": [{"measurement": "cell death (LDH release)", "setting": "ARPE-19 cells [5]; 200 nM staurosporine", "result": "significant cell death"}, {"measurement": "cell death (LDH release)", "setting": "ARPE-19 cells [5]; 500 nM staurosporine", "result": "significant cell death"}, {"measurement": "fluorescence of rhodamine 123 (ROS)", "setting": "ARPE-19 cells [6]; 200 nM staurosporine for 30 min, then dihydrorhodamine 123 for 15 min", "result": "increased fluorescence"}, {"measurement": "fluorescence of rhodamine 123 (ROS)", "setting": "ARPE-19 cells [6]; 500 nM staurosporine", "result": "greater increase in fluorescence"}]}
